Assay results published in patent publication US20050054726A1, “Vaccine” (priority 2001, published 2005).

Key:
iNOS = iNOS (Homo sapiens, UniProt P35228); conditions: category per Alderton et al., Biochem J. (2001) 357, 593-615; cited from earlier work
IFN-γ producing cells = assay: ELISPOT of IFN-γ (Th1) producing CD4+ T cells from lymph nodes; type: in vivo, mice; conditions: combination pVAC1.OVA + 1400W; FIG. 3
Method: (§1) Twenty four hours later, minipumps containing 1400W (delivering 10 mg/kg per hour), or sterile water (controls), were implanted subcutaneously into mice under anaesthesia. Mice were then immediately immunised by PMID with two cartridges of either pVAC1.0VA or empty vector (1 μg plasmid DNA/mouse).
(§2) Five days later, mice were killed by cervical dislocation and inguinal and periaortic lymph nodes were collected and prepared as for splenocytes (described above), except that the red blood cell lysis step was omitted. To measure the in vivo clonal expansion of CD4+ T cells induced by immunisation, the proportion of ovalbumin-specific T cells was assessed ex vivo in the lymph node cell preparations. Briefly, an aliquot of lymph node cells from each individual mouse was processed for flow cytometry analysis (Coulter XL) using KJ1.26 (0.2 μg, Caltag) and anti-CD4 (0.5 μg, Sigma).
(§3) Th CD4+ subsets were assessed by ELISPOT analyses of CD4+ T cells producing IFN-γ (Th1) and IL-4 (Th2). Briefly, lymph node cell suspension was aliquoted into ELISPOT plates previously coated with capture IFN-γ or IL-4 antibody and stimulated with ovalbumin cognate peptide.

[1] = test system: ovalbumin-specific CD4+ T cells; assay: In vivo clonal expansion of ovalbumin-specific CD4+ T cells after PMID immunisation (adoptive transfer model, flow cytometry KJ1+ CD4+); set-up: species or system mice
Method: as §1, §2

IL-4 producing cells = assay: ELISPOT of IL-4 (Th2) producing CD4+ T cells from lymph nodes; type: in vivo, mice; conditions: combination of 1400W with pVAC1.OVA vs pVAC1.OVA + vehicle; FIG. 2
Method: as §1, §2, §3

CD8+ T cells = assay: CD8+ T cell-restricted IFN-γ / IL-2 ELISPOT assay of splenocytes after prime-boost PMID; type: in vivo, C57B1/6 mice
Method: Controls contained pVAC1 (0.5 μg plasmid DNA/cartridge) only.
Spleens were collected 12 days later for T cell assays.
The cytotoxic T cell response was assessed by CD8+ T cell-restricted IFN-γ ELISPOT assay of splenocytes. Mice were killed by cervical dislocation and spleens were collected into ice-cold PBS. […] After two washes in PBS to remove particulate matter the single cell suspension was aliquoted into ELISPOT plates previously coated with capture IFN-γ or IL-2 antibody and stimulated with CD8-restricted cognate peptide. After overnight culture, IFN-γ producing cells were visualised by application of anti-murine IFN-γ-biotin labelled antibody (Pharmingen) followed by streptavidin-conjugated alkaline phosphatase and quantitated using image analysis.

## CC(=N)NCCCC[C@H](N)C(=O)O [L-NIL, reference compound]
iNOS
  selectivity category of iNOS inhibitor: partially selective (Inhibitors which have a 10-50-fold selectivity are regarded as partially selective inhibitors)

## CC(=N)NCCSCC[C@H](N)C(=O)O [GW274150, S-[2-(1-iminoethylamino)ethyl]-L-homocysteine]
iNOS
  selectivity category of iNOS inhibitor: highly selective (compounds of over 50-fold selectivity are regarded as highly selective)

## CC(=N)NCc1cccc(CN)c1 [1400W, N-[3-(aminomethyl)benzyl] acetamidine]
IFN-γ producing cells
  increase in number of IFN-γ producing cells: 2-4 times
[1]; empty vector + 1400W vs empty vector + vehicle
  clonal expansion of CD4+ T cells: No difference
[1]; pVAC1.OVA + 1400W (minipump, 10 mg/kg per hour) vs pVAC1.OVA + vehicle, lymph nodes, five days after PMID, Figure one
  clonal expansion of CD4+ T cells: substantial increase
IL-4 producing cells
  number of IL-4 producing cells: no effect to a modest almost 2 fold increase
CD8+ T cells; control plasmid (pVAC1) + 1400W vs vehicle
  number of IFN-γ- or IL-2-producing CD8+ T cells in the spleens: No differences
CD8+ T cells; pVAC1.OVAcyt + 1400W relative to pVAC1.OVAcyt + vehicle, 12 days after boost, FIG. 4
  number of IFN-γ- or IL-2-producing CD8+ T cells in the spleens: twice
